From US12258370B2, “Betulastatin compounds” (Arizona Board of Regents on behalf of Arizona State …, priority 2017, dated 2025)
In brackets after ≈: the same amount, converted by molar mass.

Legend:
Format in all cases: cell-based
BXPC-3 (pancreas) = assay: Sulforhodamine B human cancer cell growth inhibition, BXPC-3; conditions: BXPC-3 pancreas cell line, compounds in DMSO, 48 h; for IC50: Homo sapiens, read-out: Gl50 Growth Inhibition, XPC-3
Procedure: (§1) Cancer Cell Line Procedures. Inhibition of human cancer cell growth was assessed using the standard sulforhodamine B assay of the U.S. National Cancer Institute, as previously described.^15 To begin, cells in a 5% fetal bovine serum/RPMI1640 medium were inoculated in 96-well plates and incubated for 24 h. Next, serial dilutions of the compounds were added. After 48 h, the plates were fixed with trichloroacetic acid, stained with sulforhodamine B, and read with an automated microplate reader.

MCF-7 (breast) = assay: Sulforhodamine B human cancer cell growth inhibition, MCF-7; conditions: compounds in DMSO, 48 h; for IC50: Homo sapiens, MCF7, MCF-7 breast cell line, read-out: Gl50 Growth Inhibition, MCF-7; for Gl50 Growth Inhibition, MCF-7: MCF-7 breast cell line
Procedure: as §1

SF-268 (CNS) = assay: Sulforhodamine B human cancer cell growth inhibition, SF-268; conditions: SF-268 CNS cell line, compounds in DMSO, 48 h; for IC50: Homo sapiens, read-out: Gl50 Growth Inhibition, SF-268
Procedure: as §1

NCI-H460 (lung) = assay: Sulforhodamine B human cancer cell growth inhibition, NCI-H460; conditions: NCI-H460 lung cell line, compounds in DMSO, 48 h; for IC50: Homo sapiens, read-out: Gl50 Growth Inhibition, NCI-H460
Procedure: as §1

KM20L2 (colon) = assay: Sulforhodamine B human cancer cell growth inhibition, KM20L2; conditions: compounds in DMSO, 48 h; for IC50: Homo sapiens, KM-20L2, KM20L2 colon cell line, read-out: Gl50 Growth Inhibition, KM20L2; for Gl50 Growth Inhibition, KM20L2: KM20L2 colon cell line
Procedure: as §1

DU-145 (prostate) = assay: Sulforhodamine B human cancer cell growth inhibition, DU-145; conditions: DU-145 prostate cell line, compounds in DMSO, 48 h; for IC50: Homo sapiens, read-out: Gl50 Growth Inhibition, DU-145
Procedure: as §1

Compound: C=C(C)[C@@H]1CC[C@]2(COC(C)=O)CC[C@]3(C)C(CCC4[C@@]5(C)CC/C(=N/O)C(C)(C)[C@@H]5CC[C@]43C)[C@@H]12 (stereo partly drawn) [Compound 8, 3-Oxime-28-O-acetyl-betulin]
- IC50 (BXPC-3 (pancreas)): 10.4 µg/mL (≈ 20.9 µM)
- IC50 (MCF-7 (breast)): 5.9 µg/mL (≈ 11.9 µM)
- IC50 (SF-268 (CNS)): > 10 µg/mL
- IC50 (NCI-H460 (lung)): > 10 µg/mL
- IC50 (KM20L2 (colon)): 14.1 µg/mL (≈ 28.3 µM)
- IC50 (DU-145 (prostate)): > 10 µg/mL

Compound: C=C(C)[C@@H]1CC[C@]2(COC(C)=O)CC[C@]3(C)C(CCC4[C@@]5(C)CC[C@H](NC(=O)[C@H](C)[C@@H](OC)C6CCCN6C(=O)OC(C)(C)C)C(C)(C)[C@@H]5CC[C@]43C)[C@@H]12 (stereo partly drawn) [Compound 10, 3-β-Amino-N-(Boc-Dap)-28-O-acetyl-betulin]
- IC50 (BXPC-3 (pancreas)): > 10 µg/mL
- IC50 (MCF-7 (breast)): > 10 µg/mL
- IC50 (SF-268 (CNS)): > 10 µg/mL
- IC50 (NCI-H460 (lung)): > 10 µg/mL
- IC50 (KM20L2 (colon)): > 10 µg/mL
- IC50 (DU-145 (prostate)): > 10 µg/mL

Compound: C=C(C)[C@@H]1CC[C@]2(COC(C)=O)CC[C@]3(C)[C@H](CC[C@@H]4[C@@]5(C)CC[C@H](NC(=O)[C@H](C)[C@@H](OC)[C@@H]6CCCN6C(=O)C[C@@H](OC)[C@H]([C@@H](C)CC)N(C)C(=O)[C@@H](NC(=O)[C@H](C(C)C)N(C)C)C(C)C)C(C)(C)[C@@H]5CC[C@]43C)[C@@H]12 [Compound 11a, 3β-Amino-N-(Dap-Dil-Val-Dov)-28-O-acetyl-betulin]
- Gl50 Growth Inhibition, XPC-3 (BXPC-3 (pancreas)): 10.0 µg/mL
- Gl50 Growth Inhibition, MCF-7 (MCF-7 (breast)): 4.1 µg/mL
- Gl50 Growth Inhibition, SF-268 (SF-268 (CNS)): 3.8 µg/mL
- Gl50 Growth Inhibition, NCI-H460 (NCI-H460 (lung)): >10 µg/mL
- Gl50 Growth Inhibition, KM20L2 (KM20L2 (colon)): 7.0 µg/mL
- Gl50 Growth Inhibition, DU-145 (DU-145 (prostate)): 2.5 µg/mL

Compound: C=C(CBr)[C@@H]1CC[C@]2(COC(C)=O)CC[C@]3(C)[C@H](CC[C@@H]4[C@@]5(C)CC[C@H](OC(C)=O)C(C)(C)[C@@H]5CC[C@]43C)[C@@H]12 [Compound 12, 3,28-Di-O-acetyl-30-bromo-betulin]
- Gl50 Growth Inhibition, XPC-3 (BXPC-3 (pancreas)): >10 µg/mL
- Gl50 Growth Inhibition, MCF-7 (MCF-7 (breast)): >10 µg/mL
- Gl50 Growth Inhibition, SF-268 (SF-268 (CNS)): >10 µg/mL
- Gl50 Growth Inhibition, NCI-H460 (NCI-H460 (lung)): >10 µg/mL
- Gl50 Growth Inhibition, KM20L2 (KM20L2 (colon)): >10 µg/mL
- Gl50 Growth Inhibition, DU-145 (DU-145 (prostate)): >10 µg/mL

Compound: C=C(CN=[N+]=[N-])[C@@H]1CC[C@]2(COC(C)=O)CC[C@]3(C)C(CCC4[C@@]5(C)CC[C@H](OC(C)=O)C(C)(C)[C@@H]5CC[C@]43C)[C@@H]12 (stereo partly drawn) [Compound 13, 3,28-Di-O-acetyl-30-azido-betulin]
- IC50 (BXPC-3 (pancreas)): > 10 µg/mL
- IC50 (MCF-7 (breast)): > 10 µg/mL
- IC50 (SF-268 (CNS)): > 10 µg/mL
- IC50 (NCI-H460 (lung)): > 10 µg/mL
- IC50 (KM20L2 (colon)): > 10 µg/mL
- IC50 (DU-145 (prostate)): > 10 µg/mL

Compound: C=C(CN)[C@@H]1CC[C@]2(CO)CC[C@]3(C)[C@H](CC[C@@H]4[C@@]5(C)CC[C@H](O)C(C)(C)[C@@H]5CC[C@]43C)[C@@H]12 [Compound 14, 30-Amino-betulin]
- Gl50 Growth Inhibition, XPC-3 (BXPC-3 (pancreas)): 3.0 µg/mL
- Gl50 Growth Inhibition, MCF-7 (MCF-7 (breast)): 3.1 µg/mL
- Gl50 Growth Inhibition, SF-268 (SF-268 (CNS)): 4.2 µg/mL
- Gl50 Growth Inhibition, NCI-H460 (NCI-H460 (lung)): 4.0 µg/mL
- Gl50 Growth Inhibition, KM20L2 (KM20L2 (colon)): 2.9 µg/mL
- Gl50 Growth Inhibition, DU-145 (DU-145 (prostate)): 2.1 µg/mL

Compound: C=C(CNC(=O)[C@H](C)[C@@H](OC)[C@@H]1CCCN1C(=O)OC(C)(C)C)[C@@H]1CC[C@]2(CO)CC[C@]3(C)[C@H](CC[C@@H]4[C@@]5(C)CC[C@H](O)C(C)(C)[C@@H]5CC[C@]43C)[C@@H]12 [Compound 15a, 30-N-(Boc-dap)-betulin]
- Gl50 Growth Inhibition, XPC-3 (BXPC-3 (pancreas)): >10 µg/mL
- Gl50 Growth Inhibition, MCF-7 (MCF-7 (breast)): 9.0 µg/mL
- Gl50 Growth Inhibition, SF-268 (SF-268 (CNS)): >10 µg/mL
- Gl50 Growth Inhibition, NCI-H460 (NCI-H460 (lung)): >10 µg/mL
- Gl50 Growth Inhibition, KM20L2 (KM20L2 (colon)): >10 µg/mL
- Gl50 Growth Inhibition, DU-145 (DU-145 (prostate)): >10 µg/mL

Compound: C=C(CNC(=O)[C@H](C)[C@@H](OC)[C@@H]1CCCN1C(=O)OC(C)(C)C)[C@@H]1CC[C@]2(COC(C)=O)CC[C@]3(C)[C@H](CC[C@@H]4[C@@]5(C)CC[C@H](OC(C)=O)C(C)(C)[C@@H]5CC[C@]43C)[C@@H]12 [Compound 15b, 30-N-(Boc-dap)-3, 28-di-O-acetoxy-betulin]
- Gl50 Growth Inhibition, XPC-3 (BXPC-3 (pancreas)): >10 µg/mL
- Gl50 Growth Inhibition, MCF-7 (MCF-7 (breast)): >10 µg/mL
- Gl50 Growth Inhibition, SF-268 (SF-268 (CNS)): 5.9 µg/mL
- Gl50 Growth Inhibition, NCI-H460 (NCI-H460 (lung)): >10 µg/mL
- Gl50 Growth Inhibition, KM20L2 (KM20L2 (colon)): 7.0 µg/mL
- Gl50 Growth Inhibition, DU-145 (DU-145 (prostate)): >10 µg/mL

Compound: C=C(CNC(=O)[C@H](C)[C@@H](OC)[C@@H]1CCCN1C(=O)C[C@@H](OC)[C@H]([C@@H](C)CC)N(C)C(=O)[C@@H](NC(=O)[C@H](C(C)C)N(C)C)C(C)C)[C@@H]1CC[C@]2(COC(C)=O)CC[C@]3(C)[C@H](CC[C@@H]4[C@@]5(C)CC[C@H](OC(C)=O)C(C)(C)[C@@H]5CC[C@]43C)[C@@H]12 [Compound 16a, 30-N-(Dap-Dil-Val-Dov)-3,28-di-O-acetoxy-betulin]
- Gl50 Growth Inhibition, XPC-3 (BXPC-3 (pancreas)): 8.0 µg/mL
- Gl50 Growth Inhibition, MCF-7 (MCF-7 (breast)): 6.3 µg/mL
- Gl50 Growth Inhibition, SF-268 (SF-268 (CNS)): 4.0 µg/mL
- Gl50 Growth Inhibition, NCI-H460 (NCI-H460 (lung)): >10 µg/mL
- Gl50 Growth Inhibition, KM20L2 (KM20L2 (colon)): 4.0 µg/mL
- Gl50 Growth Inhibition, DU-145 (DU-145 (prostate)): 3.0 µg/mL
